Laboratory results as given in PubChem BioAssay AID1963829 (Molecular Pharmacology Branch, DTP, NCI, 2024).

These compounds were tested on 935938-334-R-J1-PDC complex spheroid viability (assay: Anticancer human tumor 935938-334-R-J1-PDC patient-derived small intestine adenocarcinoma cell line growth inhibition [POLQ]). Settings: second compound 1 µM; first compound 0.00316 µM; active compounds read low.
Procedure: Multicellular complex tumor spheroid response to Polymerase (POL) inhibitors (novobiocin, ART-558, RP6685) in combination with a variety of drugs and investigational agents in selected tumor cell lines
The POL inhibitors (novobiocin, ART-558, and RP6685) were evaluated both individually and in combination with standard of care and investigational anticancer small molecules within a complex spheroid model of solid tumors. . Complex spheroids include a stromal component modeled by human endothelial cells (HUVEC) and fibroblasts modeled by human mesenchymal stem cells (MSCs). The concentration ranges selected for each drug and investigational agent were based upon clinically achievable concentrations if the clinical Cmax of the agent was known.
Compounds. The drugs and investigational agents: novobiocin (NSC847541), ART-558 (NSC835418), RP-6685 (NSC848927), peposertib (NSC802822), ceralasertib (NSC780249), elimusertib (NSC800525), camonsertib (NSC841442), AZD-1390 (NSC803789), olaparib (NSC753686), talazoparib (NSC767125), rucaparib (NSC756644), sotorasib (NSC818433), MRTX-1133 (NSC836407), SN-38 (NSC673596), topotecan (NSC609699), epotoside (NSC141540), doxorubicin (NSC123127), gemcitabine (NSC613327), 5-fluorouracil (NSC19893), paclitaxel (NSC125973), vemurafenib (NSC761431), MSA-2 (NSC828583), SN-011 (NSC837082), adavosertib (NSC754352), prexasertib (NSC758257), carboplatin (NSC241240) and oxaliplatin (NSC266046), were obtained from the National Cancer Institute (NCI) Developmental Therapeutics Program Chemical Repository (21). The FDA-approved anticancer drug set is available from the Developmental Therapeutics Program at https://dtp.cancer.gov/organization/dscb/obtaining/. […] The stock solutions were prepared in dimethyl sulfoxide (DMSO, Sigma-Aldrich, St. Louis, MO, cat. D2650), except for the platinum compounds which were prepared in saline (Quality Biological, Gaithersburg, MD, cat. 114-055-101), at 800-fold the tested concentration and stored at -70 degrees C prior to their use. All drugs and investigational agents were tested over a range starting from a high concentration at or near the clinical Cmax and decreasing in half-log increments. If the clinical Cmax for an agent had not been determined, the highest concentration tested was 10 microM, except for SN-38, which was tested at a high concentration of 1 microM.
Cell Culture. All cells were maintained in an incubator at 37 degrees C and 5% CO2 with 95% humidity. The PDC lines were cultured according to standard operating procedures established by the NCI PDMR (https://pdmr.cancer.gov). Table 3 of the manuscript, lists the cell lines along with the number of the three cell types plated to form the mct-spheroids and media for tumor cell growth. After thawing, all PDC lines, except 997537-175-T-J1-PDC and 415267-285-R-J2-PDC, were cultured in Matrigel-coated flasks prepared with a working solution of 1X Ham's F-12 nutrient mix, without supplementation (Thermo Fisher Scientific, cat. 11765054), 100 U/mL penicillin-streptomycin (Thermo Fisher Scientific, cat. 15140122), and 2.5% Matrigel (Corning Inc., Corning, NY, cat. 354248) for the first three passages. The two PDC lines 997537-175-T-J1-PDC and 415267-285-R-J2-PDC were cultured on uncoated flasks. The 857933-349-R-J2-PDC line was cultured in 6C/Colon 1B media containing advanced DMEM/F-12 (Thermo Fisher Scientific, cat. 12634028), 10 mM HEPES (Thermo Fisher Scientific, cat. 15630080), 1X GlutaMAX supplement (Thermo Fisher Scientific, cat. 35050061), 0.1 mg/mL primocin (InvivoGen, San Diego, CA, cat. ant-pm-2), 10% defined fetal bovine serum, heat inactivated (HyClone Laboratories Inc., Logan, UT, cat. SH30070.03HI), 50% L-WRN conditioned media (ATCC, cat. CRL-3276), 1.25 mM N-Acetyl-L-cysteine (Sigma-Aldrich, cat. A9165), 10 mM nicotinamide (Sigma-Aldrich, cat. N0636), 1X B-27 supplement (Thermo Fisher Scientific, cat. 17504044), 1X N-2 supplement (Thermo Fisher Scientific, cat. […]
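Note: spheroids exposed to drugs for seven days before viability read; 100% = DMSO vehicle control wells.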

SMILES	viability, T/C
CCc1c2c(nc3ccc(O)cc13)-c1cc3c(c(=O)n1C2)COC(=O)[C@]3(O)CC + Cc1cccc(N(C)C(=O)C2C(O)CCN2c2nc(C)cc(C(F)(F)F)c2C#N)c1	82.9%

Same assay, conditions: second compound 1 µM; first compound 0.01 µM; active compounds read low

SMILES	viability, T/C
CCc1c2c(nc3ccc(O)cc13)-c1cc3c(c(=O)n1C2)COC(=O)[C@]3(O)CC + Cc1cccc(N(C)C(=O)C2C(O)CCN2c2nc(C)cc(C(F)(F)F)c2C#N)c1	63.2%

Same assay, conditions: second compound 1 µM; first compound 0.0316 µM; active compounds read low

SMILES	viability, T/C
CCc1c2c(nc3ccc(O)cc13)-c1cc3c(c(=O)n1C2)COC(=O)[C@]3(O)CC + Cc1cccc(N(C)C(=O)C2C(O)CCN2c2nc(C)cc(C(F)(F)F)c2C#N)c1	43.5%
O=c1[nH]cc(F)c(=O)[nH]1 + COC1C(OC(N)=O)C(O)C(Oc2ccc3c(O)c(NC(=O)c4ccc(O)c(CC=C(C)C)c4)c(=O)oc3c2C)OC1(C)C	93%
COc1cc2cc(C(=O)CCC(=O)O)sc2cc1OC + Nc1ccc(C#CCN(C(=O)Cc2ncc(C(F)(F)F)cc2C(F)(F)F)c2ccc(F)cc2)nn1	89.6%
C#Cc1c(F)ccc2cc(O)cc(-c3ncc4c(N5CC6CCC(C5)N6)nc(OCC56CCCN5CC(F)C6)nc4c3F)c12 (centres undefined) + Cc1cccc(N(C)C(=O)C2C(O)CCN2c2nc(C)cc(C(F)(F)F)c2C#N)c1	92%

Same assay, conditions: second compound 1 µM; first compound 0.1 µM; active compounds read low

SMILES	viability, T/C
CCc1c2c(nc3ccc(O)cc13)-c1cc3c(c(=O)n1C2)COC(=O)[C@]3(O)CC + Cc1cccc(N(C)C(=O)C2C(O)CCN2c2nc(C)cc(C(F)(F)F)c2C#N)c1	36.6%
O=c1[nH]cc(F)c(=O)[nH]1 + COC1C(OC(N)=O)C(O)C(Oc2ccc3c(O)c(NC(=O)c4ccc(O)c(CC=C(C)C)c4)c(=O)oc3c2C)OC1(C)C	96.4%
COc1cc2cc(C(=O)CCC(=O)O)sc2cc1OC + Nc1ccc(C#CCN(C(=O)Cc2ncc(C(F)(F)F)cc2C(F)(F)F)c2ccc(F)cc2)nn1	114%
C#Cc1c(F)ccc2cc(O)cc(-c3ncc4c(N5CC6CCC(C5)N6)nc(OCC56CCCN5CC(F)C6)nc4c3F)c12 (centres undefined) + Cc1cccc(N(C)C(=O)C2C(O)CCN2c2nc(C)cc(C(F)(F)F)c2C#N)c1	75%

Same assay, conditions: second compound 1 µM; first compound 0.316 µM; active compounds read low

SMILES	viability, T/C
CCc1c2c(nc3ccc(O)cc13)-c1cc3c(c(=O)n1C2)COC(=O)[C@]3(O)CC + Cc1cccc(N(C)C(=O)C2C(O)CCN2c2nc(C)cc(C(F)(F)F)c2C#N)c1	33.3%
O=c1[nH]cc(F)c(=O)[nH]1 + COC1C(OC(N)=O)C(O)C(Oc2ccc3c(O)c(NC(=O)c4ccc(O)c(CC=C(C)C)c4)c(=O)oc3c2C)OC1(C)C	80.9%
COc1cc2cc(C(=O)CCC(=O)O)sc2cc1OC + Nc1ccc(C#CCN(C(=O)Cc2ncc(C(F)(F)F)cc2C(F)(F)F)c2ccc(F)cc2)nn1	78.4%
C#Cc1c(F)ccc2cc(O)cc(-c3ncc4c(N5CC6CCC(C5)N6)nc(OCC56CCCN5CC(F)C6)nc4c3F)c12 (centres undefined) + Cc1cccc(N(C)C(=O)C2C(O)CCN2c2nc(C)cc(C(F)(F)F)c2C#N)c1	64.3%

Same assay, conditions: second compound 1 µM; first compound 1 µM; active compounds read low

SMILES	viability, T/C
CCc1c2c(nc3ccc(O)cc13)-c1cc3c(c(=O)n1C2)COC(=O)[C@]3(O)CC + Cc1cccc(N(C)C(=O)C2C(O)CCN2c2nc(C)cc(C(F)(F)F)c2C#N)c1	29.2%
O=c1[nH]cc(F)c(=O)[nH]1 + COC1C(OC(N)=O)C(O)C(Oc2ccc3c(O)c(NC(=O)c4ccc(O)c(CC=C(C)C)c4)c(=O)oc3c2C)OC1(C)C	52.8%
COc1cc2cc(C(=O)CCC(=O)O)sc2cc1OC + Nc1ccc(C#CCN(C(=O)Cc2ncc(C(F)(F)F)cc2C(F)(F)F)c2ccc(F)cc2)nn1	81.7%
C#Cc1c(F)ccc2cc(O)cc(-c3ncc4c(N5CC6CCC(C5)N6)nc(OCC56CCCN5CC(F)C6)nc4c3F)c12 (centres undefined) + Cc1cccc(N(C)C(=O)C2C(O)CCN2c2nc(C)cc(C(F)(F)F)c2C#N)c1	64.8%

Same assay, conditions: second compound 1 µM; first compound 3.16 µM; active compounds read low

SMILES	viability, T/C
O=c1[nH]cc(F)c(=O)[nH]1 + COC1C(OC(N)=O)C(O)C(Oc2ccc3c(O)c(NC(=O)c4ccc(O)c(CC=C(C)C)c4)c(=O)oc3c2C)OC1(C)C	64.5%
COc1cc2cc(C(=O)CCC(=O)O)sc2cc1OC + Nc1ccc(C#CCN(C(=O)Cc2ncc(C(F)(F)F)cc2C(F)(F)F)c2ccc(F)cc2)nn1	110%
C#Cc1c(F)ccc2cc(O)cc(-c3ncc4c(N5CC6CCC(C5)N6)nc(OCC56CCCN5CC(F)C6)nc4c3F)c12 (centres undefined) + Cc1cccc(N(C)C(=O)C2C(O)CCN2c2nc(C)cc(C(F)(F)F)c2C#N)c1	36.5%

Same assay, conditions: second compound 1 µM; first compound 10 µM; active compounds read low

SMILES	viability, T/C
O=c1[nH]cc(F)c(=O)[nH]1 + COC1C(OC(N)=O)C(O)C(Oc2ccc3c(O)c(NC(=O)c4ccc(O)c(CC=C(C)C)c4)c(=O)oc3c2C)OC1(C)C	51.1%
COc1cc2cc(C(=O)CCC(=O)O)sc2cc1OC + Nc1ccc(C#CCN(C(=O)Cc2ncc(C(F)(F)F)cc2C(F)(F)F)c2ccc(F)cc2)nn1	112%
C#Cc1c(F)ccc2cc(O)cc(-c3ncc4c(N5CC6CCC(C5)N6)nc(OCC56CCCN5CC(F)C6)nc4c3F)c12 (centres undefined) + Cc1cccc(N(C)C(=O)C2C(O)CCN2c2nc(C)cc(C(F)(F)F)c2C#N)c1	35.5%
